Read-outs that look alike come from different tables or passages of the source.

The source of these data is patent US20150217046A1, “DOSING REGIMENS FOR SUBCUTANEOUSLY INFUSIBLE ACIDIC COMPOSITIONS” (SynAgile Corporation, priority 2012, published 2015).

Data set [1] can be described thus: Rate of hydrolysis of LD esters in solution. It counts as physicochemical. The settings on record: about pH 4.5, about 23° C. On the procedure: At a particular temperature and pH, the LDEs formed of LD and of different alcohols are hydrolyzed prior to their infusion at different rates. […] The rate of hydrolysis of LDE salts also depends on the anion, i.e., on the acid forming the LDE salt. LDE is hydrolyzed more rapidly when carboxylate anions and/or carboxylic acids replace the chloride anion or HCl. The rate of hydrolysis of the salt formed of LDEE and acetic acid can be about 3 times faster at about pH 4.5 at about 23° C. than that of LDEE.HCl, the salt formed of LDEE and HCl. The rate of hydrolysis at a particular pH and temperature can therefore depend on the buffering agent, e.g., citric acid and/or citrate anions, becoming faster when their concentration is elevated. Typically, the concentration of the buffering ions, i.e., the combined concentrations of citrates and citric acid, is between about 5 mM and 100 mM, for example between about 10 mM and 50 mM. The rate of hydrolysis can increase, for example, when the buffering citric acid-citrate concentration is increased.
In aqueous LDE salt pharmaceutical compositions, the hydrolysis rates generally decrease as the pH decreases, and the shelf life of the LDE salt consequently increases, unless the pH is about 1.7±0.5 or less. […] In acidic pharmaceutical compositions the amines of the LDEs are protonated, making the LDEs cations. […] The rates of hydrolysis generally increase with temperature, and may at least about double or about triple for each 10° C. increase, correspondingly decreasing upon cooling.

The conditions of data set [2]: 25° C., pH 7 or pH 5; cited from earlier work.
For data set [3] the following is noted: initially about pH 3.7±0.2. On the procedure:
Such a pH can be maintained for example through co-dissolving citric acid and/or a citrate salt, e.g., monosodium citrate, for example to about 10-50 mM concentration. For infusion it is desired, in order to avoid acid-caused pain, to raise the pH at least to pH 2.4±0.3, for example to 2.4±0.3, 2.6±0.3, 2.8±0.3, 3.1±0.3, 3.4±0.3, 3.7±0.3 or to 4.0±0.3, for example by adding citric acid, monosodium citrate, or trisodium citrate.

The conditions of data set [4]: 0.44 M LDEE.HCl, pH 3.7±0.1, 4.0° C., 39 weeks, 3 samples. On the procedure: The LD concentration was monitored in 3 samples of 0.44 M LDEE.HCl at pH 3.7±0.1 and 4.0° C.
Where [5] appears, read: about 0.44 M LDEE.HCl infusible composition.
The mark [6] stands for this setting: about 1.0 M LDEE.HCl infusible composition.
Setting [7] is: first infusion, continuous over 16 hours, 0.163 mL/hour, end of infusion.

In the case of `CC(=O)O.CCOC(=O)C(N)Cc1ccc(O)c(O)c1` (stereo not shown) [salt formed of LDEE and acetic acid], the “rate of hydrolysis relative to LDEE.HCl” value in data set [1] is listed as “about 3 times”.
With `N[C@@H](Cc1ccc(O)c(O)c1)C(=O)O` [levodopa], in data set [2], the solubility is reported as no more than 5 g per liter.
On to `CCOC(=O)[C@@H](N)Cc1ccc(O)c(O)c1.Cl` [LDEE.HCl, hydrochloride salt of the ethyl ester of L-DOPA], for which the “Estimated operational life at 30° C.” value in data set [3] (setting [5]) was greater than 3 days; in data set [3] (setting [6]), greater than 2 days. In addition, the entries for the “Estimated operational life at 37° C.” value in data set [3] (setting [5]) and in data set [3] (setting [6]) were greater than 2 days and greater than 1 days, respectively. In addition, the results for the “Estimated storage life at 4° C.” value in data set [3] (setting [5]) and in data set [3] (setting [6]) were greater than 1.5 years and greater than 6 months, respectively. In addition, the “Estimated storage life at 25° C.” value in data set [3] (setting [5]) is listed as greater than 1 months; in data set [3] (setting [6]), greater than 2 weeks. Also, the “concentration of LD after refrigerated storage” value in data set [4] is given as “less than 2 mg/mL”. Besides, for the setting “0.48 M LDEE.HCl pH 3.5, 1.25 millimoles per infusion, all three infusions”, the pain during infusion result was “no pain at any time during the infusions”. In addition, under setting [7], the “diameter of area with redder skin” value amounted to 3 cm. For the same molecule, the “diameter of slightly protruding hard swelling” value under setting [7] was determined as 2.5 cm. Further, the “diameter of palpable induration” value (first infusion, continuous over 16 hours, after 21 hours) turned out to be 1 cm. In addition, the diameter of induration (first infusion, continuous over 16 hours, after 2 days) was 0.5 cm. Also, the skin symptoms entry runs as follows: (second infusion, intermittent over 10.5 hours, 0.35 mL/hour, with oral carbidopa, end of infusion) “no skin symptoms at the end of the infusion”; (second infusion, intermittent over 10.5 hours, with oral carbidopa, after 11 hours) “a barely perceptible very lightly pink 2.5 cm diameter zone and a very mild soft palpable swelling”; (second infusion, intermittent over 10.5 hours, with oral carbidopa, after 36 hours) “only a barely palpable 3 cm long 1 cm wide soft horizontal induration”; (third infusion, intermittent over 10.8 hours, 0.35 mL/hour, without oral carbidopa, end of infusion) “no significant skin symptoms at the end of the infusion”; (third infusion, intermittent, without oral carbidopa, four hours after end of infusion) “very slightly more pink over a 2.5 cm diameter zone and there was a small (2 cm×1 cm) barely palpable induration”; (third infusion, intermittent, without oral carbidopa, fourteen hours after end of infusion) “the site could be recognized by its pink color”.
